Measurements as given in publication PMC4667193 (Scientific Reports, 2015).

Assays:
[1] = tested on: rat primary hippocampal cell culture; assay: MTT viability assay, AEME-induced neurotoxicity; format: cell-based; conditions: 10 nM antagonist/inhibitor added 30 minutes prior to 10^−3 M AEME, 24 hours, % of control
Description: Neuronal viability was evaluated in the hippocampal cell culture using the 3-(4,5-dimethylthiazol-2-yl)-2,5-diphenyltetrazolium bromide (MTT; Sigma) reduction assay, with some modification. Briefly, after 24 hours of incubation with 10^−3 M AEME in the absence and in the presence of 10 nM pirenzepine hydrochloride (M1 selective antagonist; Sigma), 10 nM p-F-HHSiD (M3 selective antagonist; Sigma) and the specific inhibitor of different isoforms of PLC U73122 (10 nM)[55] (Sigma), all the medium was removed, and 100 μL of MTT solution, containing 5 mg/mL MTT in PBS and neurobasal medium without phenol red (1:9, v/v) were added. After 3 hours of incubation with MTT at 37 °C in a humidified atmosphere of 5% CO2, the MTT solution was removed and 200 μL of dimethyl sulfoxide was added to each well. After 30 minutes of shaking, the absorbance was measured at 570 nm in a multiwell plate reader (BioTek Synergy H1 Hybrid Reader). Potassium chloride (250 mM) was used as a positive control of neuronal death. Muscarinic antagonists, as well as the iPLC, were added 30 minutes prior to incubation with AEME. The antagonist concentration used was near the pKi[25][56]. A control containing 0.002% DMSO was used, since the iPLC stock solution was previously dissolved in this solvent. The assay was performed in quadruplicate, and the results were expressed as a percentage of the control value.

[2] = tested on: rat primary hippocampal cell culture; assay: total [^3H]inositol phosphate accumulation in hippocampal cells; format: cell-based; conditions: 10^−8 to 10^−3 M
Description: Hippocampal cells (1 × 10^6 cells/well) were allowed to equilibrate for 10 minutes with a nutrient solution of the following composition (mM): NaCl 157.00; KCl 5.60; CaCl2 0.27; MgCl2 3.00; NaHCO3 1.80; glucose 5.50 (pH 7.0–7.2) at 37 °C under constant shaking. Cells were incubated with 5 μCi of myo[^3H]inositol (specific activity 18.0 Ci/mmol) for 80 minutes, and lithium chloride (10 mM) for additional 30 minutes. Afterwards, the cells were incubated in the absence (basal level) and in the presence of carbachol (positive control) and AEME (10^−8 to 10^−3 M) for 10 minutes. Cells were removed from the plate using a 0.1 M NaOH solution and washed three times with nutrient solution, transferred to 2 mL of methanol:chloroform (2:1 v-v) at 4 °C and homogenized with a Ultra-Turrax T25 homogenizer at 9500 rpm. Chloroform (0.62 mL) and H2O (0.93 mL) were added to the homogenate, and the solution was centrifuged for 5 minutes at 1,000× g to separate aqueous and organic phases. Total [^3H]inositol phosphate was measured as previously described by Ascoli et al.[45] with slight modification. The aqueous layer was neutralized with 0.1 M HCl and then mixed with 1 mL anion-exchange resin (Dowex AG-X8, formate form, 200–400 mesh), allowed to equilibrate for 30 minutes at room temperature, under agitation, and centrifugated at 1,000× g, for 5 minutes at 4 °C. The resin was then washed sequentially, with 10 mM myo-inositol (2 mL) and 5 mM sodium tetraborate/60 mM sodium formate (2 mL). The resin was incubated for 30 minutes at room temperature with 2 mL of 0.1 M formic acid/1 M ammonium formate). The total [^3H]inositol phosphate was eluted and placed in scintillation vials containing OptiPhase HiSafe 3. The amount of radioactivity was determined in scintillation β-counter (LS 6500 IC, Beckman). Total [^3H]inositol phosphate was expressed as percentage above basal level.

**Q.** With `COc1ccc2c(c1)CC[C@@H]1[C@@H]2CC[C@]2(C)[C@@H](NCCCCCCN3C(=O)C=CC3=O)CC[C@@H]12` [U73122] as the compound, how does the viable cells [1] read?
**A.** 102.6%

**Q.** How did the viable cells [1] turn out when `CN1CCN(CC(=O)N2c3ccccc3C(=O)Nc3cccnc32)CC1` [pirenzepine] was run?
**A.** 98.4%

**Q.** With `Cl.O[Si](CCCN1CCCCC1)(c1ccc(F)cc1)C1CCCCC1` (centres unmarked) [p-F-HHSiD, p-fluorohexahydro-sila-difenidol hydrochloride] as the compound, how does the viable cells [1] read?
**A.** 85.4%

**Q.** What does the source list for `C[N+](C)(C)CCOC(N)=O` [carbachol, reference compound]?
**A.** effect on total [^3H]inositol phosphate [2]: concentration-dependent increase; concentration giving maximum inositol phosphate accumulation ([2]; 10 minutes): 10^−5 M
